Reference: ChEMBL document CHEMBL4477260, “Arylazolyl(azinyl)thioacetanilides. Part 20: Discovery of novel purinylthioacetanilides derivatives as potent HIV-1 NNRTIs via a structure-based bioisosterism approach” (Bioorg Med Chem, 2016)

Assays:
[1] = Selectivity index, ratio of CC50 for mock-infected human MT4 cells to EC50 for human HIV-1 3B infected in human MT4 cells; assay type: toxicity, cell-based; details: MT4 cells (mock-infected for CC50, HIV-1-infected for EC50)
[2] = Cytotoxicity against mock-infected human MT4 cells assessed as reduction of cell viability after 5 days by MTT assay; assay type: cell-based
[3] = test system: Human immunodeficiency virus 1; test: Antiviral activity against human HIV-1 3B infected in human MT4 cells assessed as protection from virus-induced cytopathic effect measured 5 days post infection by MTT assay; assay type: functional, organism-based; details: Human immunodeficiency virus 1, 3B, MT4, 120 h
[4] = Selectivity index, ratio of CC50 for mock-infected human MT4 cells to EC50 for human HIV-1 3B harboring RES056 mutant infected in human MT4 cells; assay type: toxicity, cell-based; details: MT4 cells (mock-infected for CC50, HIV-1-infected for EC50)
[5] = test system: Human immunodeficiency virus 1; test: Antiviral activity against human HIV-1 3B harboring RES056 mutant infected in human MT4 cells assessed as protection from virus-induced cytopathic effect measured 5 days post infection by MTT assay; assay type: functional, organism-based; details: Human immunodeficiency virus 1, 3B, MT4, 120 h
[6] = target: Human immunodeficiency virus type 1 reverse transcriptase (Human immunodeficiency virus 1, UniProt Q72547); test: Inhibition of HIV-1 reverse transcriptase assessed as reduction in biotin-duTP incorporation using biotin-labeled dUTP and hybrid poly(A)-oligo (dT)15 template primer after 2 hrs by ELISA
[7] = test system: Human immunodeficiency virus 1; test: Antiviral activity against human HIV-1 3B harboring reverse transcriptase F227L/V106A double mutant infected in human MT4 cells assessed as protection from virus-induced cytopathic effect measured 5 days post infection by MTT assay; assay type: functional, organism-based; details: Human immunodeficiency virus 1, 3B, MT4, 120 h
[8] = test system: Human immunodeficiency virus 1; test: Antiviral activity against human HIV-1 3B harboring reverse transcriptase Y188L mutant infected in human MT4 cells assessed as protection from virus-induced cytopathic effect measured 5 days post infection by MTT assay; assay type: functional, organism-based; details: Human immunodeficiency virus 1, 3B, MT4, 120 h
[9] = test system: Human immunodeficiency virus 1; test: Antiviral activity against human HIV-1 3B harboring reverse transcriptase Y181C mutant infected in human MT4 cells assessed as protection from virus-induced cytopathic effect measured 5 days post infection by MTT assay; assay type: functional, organism-based; details: Human immunodeficiency virus 1, 3B, MT4, 120 h
[10] = test system: Human immunodeficiency virus 1; test: Antiviral activity against human HIV-1 3B harboring reverse transcriptase E138K mutant infected in human MT4 cells assessed as protection from virus-induced cytopathic effect measured 5 days post infection by MTT assay; assay type: functional, organism-based; details: Human immunodeficiency virus 1, 3B, MT4, 120 h
[11] = Selectivity index, ratio of CC50 for mock-infected human MT4 cells to EC50 for human HIV-1 3B harboring F227L/V106A double mutant infected in human MT4 cells; assay type: toxicity, cell-based; details: MT4 cells (mock-infected for CC50, HIV-1-infected for EC50)
[12] = Selectivity index, ratio of CC50 for mock-infected human MT4 cells to EC50 for human HIV-1 3B harboring L100I mutant infected in human MT4 cells; assay type: toxicity, cell-based; details: MT4 cells (mock-infected for CC50, HIV-1-infected for EC50)
[13] = test system: Human immunodeficiency virus 1; test: Antiviral activity against human HIV-1 3B harboring reverse transcriptase K103N mutant infected in human MT4 cells assessed as protection from virus-induced cytopathic effect measured 5 days post infection by MTT assay; assay type: functional, organism-based; details: Human immunodeficiency virus 1, 3B, MT4, 120 h
[14] = test system: Human immunodeficiency virus 1; test: Antiviral activity against human HIV-1 3B harboring reverse transcriptase L100I mutant infected in human MT4 cells assessed as protection from virus-induced cytopathic effect measured 5 days post infection by MTT assay; assay type: functional, organism-based; details: Human immunodeficiency virus 1, 3B, MT4, 120 h
[15] = Selectivity index, ratio of CC50 for mock-infected human MT4 cells to EC50 for human HIV-1 3B harboring K103N mutant infected in human MT4 cells; assay type: toxicity, cell-based; details: MT4 cells (mock-infected for CC50, HIV-1-infected for EC50)
[16] = Selectivity index, ratio of CC50 for mock-infected human MT4 cells to EC50 for human HIV-1 3B harboring Y181C mutant infected in human MT4 cells; assay type: toxicity, cell-based; details: MT4 cells (mock-infected for CC50, HIV-1-infected for EC50)
[17] = Selectivity index, ratio of CC50 for mock-infected human MT4 cells to EC50 for human HIV-1 3B harboring E138K mutant infected in human MT4 cells; assay type: toxicity, cell-based; details: MT4 cells (mock-infected for CC50, HIV-1-infected for EC50)
[18] = Selectivity index, ratio of CC50 for mock-infected human MT4 cells to EC50 for human HIV-1 3B harboring Y188L mutant infected in human MT4 cells; assay type: toxicity, cell-based; details: MT4 cells (mock-infected for CC50, HIV-1-infected for EC50)

Structure (SMILES) | selectivity ratio [1] | CC50 at 120 h [2] | EC50 [3] | selectivity ratio [4] | EC50 [5] | further results
CCOC(=O)c1ccc(NC(=O)CSc2nc3cnc(Cl)nc3n2-c2ccc(C3CC3)c3ccccc23)c(Br)c1 | < 1 | 150 µM | > 150 µM | – | – | –
O=C(CSc1nc2cnc(Cl)nc2n1-c1ccc(C2CC2)c2ccccc12)Nc1ccc(C(F)(F)F)cc1 | < 1 | 16.2 µM | > 16.2 µM | < 1 | – | –
CC(Sc1nc2cnc(Cl)nc2n1-c1ccc(C2CC2)c2ccccc12)C(=O)Nc1ccc(S(N)(=O)=O)cc1Br (stereo not drawn) | 6 | 15.9 µM | 2.75 µM | 1 | > 15.9 µM | –
COC(=O)c1ccc(NC(=O)CSc2nc3cnc(Cl)nc3n2-c2cccc3ccccc23)c(Br)c1 | 94 | 156 µM | 1.66 µM | < 1 | > 156 µM | –
CC(Sc1nc2cnc(Cl)nc2n1-c1cccc2ccccc12)C(=O)Nc1ccc(C(N)=O)cc1Cl (stereo not drawn) | 9 | 23.6 µM | 2.73 µM | < 1 | > 23.6 µM | –
CCOC(=O)c1ccc(NC(=O)CSc2nc3cnc(Cl)nc3n2-c2cccc3ccccc23)c(Br)c1 | 32 | 109 µM | 3.43 µM | < 1 | > 109 µM | –
NC(=O)c1ccc(NC(=O)CSc2nc3cnc(Cl)nc3n2-c2cccc3ccccc23)c(Br)c1 | 12 | 21.6 µM | 1.8 µM | < 1 | > 21.6 µM | –
NC(=O)c1ccc(NC(=O)CSc2nc3cnc(Cl)nc3n2-c2ccc(C3CC3)c3ccccc23)c(Br)c1 | < 1 | 11.2 µM | > 11.2 µM | – | – | –
CC(Sc1nc2cnc(Cl)nc2n1-c1cccc2ccccc12)C(=O)Nc1ccc(S(N)(=O)=O)cc1Br (stereo not drawn) | 24 | 19 µM | 0.78 µM | < 1 | > 19 µM | IC50 [6]: 6.42 µM
CC(Sc1nc2cnc(Cl)nc2n1-c1cccc2ccccc12)C(=O)Nc1ccc(C(N)=O)cc1Br (stereo not drawn) | 12 | 21.8 µM | 1.86 µM | < 1 | > 21.8 µM | –
O=C(CSc1nc2cnc(Cl)nc2n1-c1cccc2ccccc12)Nc1ccc(C(F)(F)F)cc1 | < 1 | 14.2 µM | > 14.3 µM | – | – | –
NC(=O)c1ccc(NC(=O)CSc2nc3cnc(Cl)nc3n2-c2cccc3ccccc23)c(Cl)c1 | 5 | 22.7 µM | 4.56 µM | < 1 | > 22.7 µM | –
CC(Sc1nc2cnc(Cl)nc2n1-c1ccc(C2CC2)c2ccccc12)C(=O)Nc1ccc(S(N)(=O)=O)cc1Cl (stereo not drawn) | 4 | 17.6 µM | 4.04 µM | ≤ 3 | ≥ 5.74 µM | –
NC(=O)c1ccc(NC(=O)CSc2nc3cnc(Cl)nc3n2-c2ccc(C3CC3)c3ccccc23)c(Cl)c1 | < 1 | 6.39 µM | > 6.39 µM | – | – | –
CC(Sc1nc2cnc(Cl)nc2n1-c1cccc2ccccc12)C(=O)Nc1ccc(S(N)(=O)=O)cc1Cl (stereo not drawn) | 20 | 21.5 µM | 1.07 µM | < 1 | > 21.5 µM | –
CC(Sc1nc2cnc(Cl)nc2n1-c1ccc(C2CC2)c2ccccc12)C(=O)Nc1ccc(C(N)=O)cc1Br (stereo not drawn) | 8 | 55.9 µM | 7.22 µM | 10 | 22.2 µM | EC50 [7]: > 55.8 µM; EC50 [8]: > 55.8 µM; EC50 [9]: > 55.8 µM; EC50 [10]: ≥ 65.1 µM; selectivity ratio [11]: < 1; selectivity ratio [12]: 8; EC50 [13]: ≥ 48.1 µM; EC50 [14]: 5.64 µM; selectivity ratio [15]: ≤ 1; selectivity ratio [16]: < 1; selectivity ratio [17]: ≤ 1; selectivity ratio [18]: < 1
CC(Sc1nc2cnc(Cl)nc2n1-c1ccc(C2CC2)c2ccccc12)C(=O)Nc1ccc(C(N)=O)cc1Cl (stereo not drawn) | < 1 | 25.1 µM | > 25.1 µM | – | – | –
NC(=O)c1ccc(NC(=O)CSc2nc3cnc(Cl)nc3n2-c2cccc3ccccc23)cc1 | ≤ 5 | 156 µM | ≥ 28.8 µM | < 1 | > 156 µM | –
NS(=O)(=O)c1ccc(NC(=O)CSc2nc3cnc(Cl)nc3n2-c2ccc(C3CC3)c3ccccc23)cc1 | 6 | 113 µM | 18.7 µM | < 1 | > 113 µM | –
NS(=O)(=O)c1ccc(NC(=O)CSc2nc3cnc(Cl)nc3n2-c2cccc3ccccc23)cc1 | 23 | 104 µM | 4.46 µM | < 1 | > 104 µM | –
COC(=O)c1ccc(NC(=O)CSc2nc3cnc(Cl)nc3n2-c2ccc(C3CC3)c3ccccc23)c(Br)c1 | < 1 | 153 µM | > 153 µM | – | – | –
CC(C)Nc1cccnc1N1CCN(C(=O)c2cc3cc(NS(C)(=O)=O)ccc3[nH]2)CC1 [DELAVIRDINE] | – | 36.8 µM | 0.0383 µM | – | – | selectivity ratio [11]: 16; selectivity ratio [12]: 14; selectivity ratio [15]: 12; selectivity ratio [16]: 15; selectivity ratio [17]: 715; selectivity ratio [18]: 44
O=C1Nc2ccc(Cl)cc2[C@@](C#CC2CC2)(C(F)(F)F)O1 [EFAVIRENZ] | – | ≥ 6.34 µM | – | – | – | –
Cc1cc(C#N)cc(C)c1Oc1nc(Nc2ccc(C#N)cc2)nc(N)c1Br [ETRAVIRINE] | – | 2.46 µM | 0.00335 µM | – | – | EC50 [9]: 0.015 µM
Cc1ccnc2c1NC(=O)c1cccnc1N2C1CC1 [NEVIRAPINE] | – | ≥ 15 µM | – | – | – | –
